Source: patent US20260199284A1, “SPECIFIC VASH COMPOUNDS (SVC) INHIBITORS FOR HEART DISEASES” (MT ACT, priority 2023, published 2026)
Entries after “also recorded” stand apart in the source; their conditions may differ.

How the values were obtained:
[1] = test system: cardiomyocytes isolated from failing human hearts; assay: Human myocyte contractility; format: cell-based
Protocol: Once excised, hearts were transported from the operating room to the laboratory in cold cardioplegia. The myocyte isolation was performed as previously described. An apical wedge was dissected from left ventricular free wall and a catheter was placed into the left anterior descending artery. The cannula was flushed with cold saline to evaluate perfusion of the wedge and tie any major vessels. The myocardium was then perfused with warm non-recirculating Krebs-Henseleit buffer (KHB) solution (12.5 mM glucose, 5.4 mM KCl, 1 mM lactic acid, 1.2 mM MgSO4, 130 mM NaCl, 1.2 mM NaH2PO4, 25 mM NaHCO3, 2 mM Na pyruvate, 20 mM BDM and 10 mM taurine, pH 7.4) for 10 minutes. Then, the myocardium was perfused with recirculated KHB and type II collagenase (294 units/mL) (Worthington Biochemical Corp., Lakewood, NJ, USA) for 5 minutes before calcium was slowly re-introduced to reach a final concentration of 1 mM. The collagenase and calcium supplemented KHB were recirculated for 25-30 minutes depending on the how the myocardium digested. The tissue was then removed from the cannula, rinsed in KHB with 1% bovine serum albumin (BSA) to stop the digestion, and then minced. The cell suspension was then filtered using 280-uM nylon mesh, centrifuged (25×g for 2 min), and resuspended in normal Tyrode's solution. Cells were treated with VASH inhibitor (VASHi) (1 mM) or vehicle (DMSO) before being placed in an incubator for 4 hours.
Contractility was assessed as previously described. After the 4-hour incubation with either VASHi or vehicle was complete, cardiomyocytes were transferred to 35 mm glass-bottom dishes. Contractility data was collected at 37 C. Cardiomyocytes were paced at 0.5 Hz using a myopacer (IonOptix MYP100) with custom fabricated carbon electrodes lowered into the glass bottom dish. Cells were paced for 10-15 seconds to reach steady state contractions and then data was recorded using high-speed video imaging with a Nikon PU-2000 inverted microscope with a 40× objective (IonWizard, IonOptix). A minimum of 5 contractions were recorded for Each myocyte and analyzed offline.
Cardiomyocytes were isolated from failing (N=4) and non-failing (N=3) human hearts, then treated with vehicle or VASHi (SVC-02) to evaluate bioactivity of the small molecule compound in primary human cardiomyocytes. Patient demographics are detailed in a table (FIG. 26). Compiled traces from all non-failing and failing patients are shown (FIG. 27).

[2] = test system: Swiss mice; assay: Organ histology (Hematoxylin and Eosin) after systemic treatment; format: in vivo, mouse
Text: To further ascertain the safety profile of the compounds in an animal model, we administered SVC-02 to Swiss mice and analysed by immunohistological description different organ structures including kidney, heart and lung.

[3] = test system: ZSF1 obese rats; assay: Echocardiography and invasive hemodynamics in HFpEF rats; format: in vivo, rat
Text: FIG. 21: VASHi acutely improves diastolic function in HFpEF rats. A) Echocardiographic assessments of left ventricular diastolic function in ZSF1 Lean and Obese animals+/−SVC_02 treatment. Improved E/A ratio (marker of the function of the left ventricle of the heart) and mitral valve deceleration time indicate improved diastolic function and faster ventricular relaxation upon VASH inhibition in ZSF1 obese rats. B) Hemodynamic measurements of left ventricular diastolic function in ZSF1 Lean and Obese animals+/−SVC_02 treatment. Improved tau (left ventricular diastolic time constant) and dP/dTmin (rate of ventricular relaxation) indicate more rapid ventricular relaxation upon VASH inhibition in ZSF1 obese rats.
Echocardiography measurements were acquired Vevo2100 Ultrasound System (VisualSonics Inc., Toronto, Ontario, Canada) with a MS250 (13-24 MHz) transducer. Animals were sedated with inhaled isoflurane (2-3%). Parasternal long axis, parasternal short axis, apical four chamber, and apical two chamber views were acquired to assess cardiac structure and function. Diastology was assessed using pulse wave and tissue doppler imaging. The protocol used was based on recommendations from the European Society of Cardiology Working Group on Myocardial Function (Zacchigna S et al. 2021).
Animals were induced with isoflurane (5%) before being intubated and mechanically supported. Anesthesia plane was maintained using isoflurane (2-3%). A 2-French pressure-conductance catheter (Transonic Systems Inc., Ithaca, New York, USA) was calibrated using echo derived left ventricular volumes. The right common carotid artery was then dissected, and the catheter was advanced in a retrograde fashion into the left ventricle as previously described. Data were acquired using PowerLab and LabChart Pro (ADInstruments) and analyzed offline using LabChart Pro (ADInstruments).

[4] = test system: mitochondrial activity; assay: Seahorse Cell Mito Stress Test; format: cell-based; details: 20 μM
Protocol: FIG. 10: Mitochondrial activity assays using the Agilent Seahorse Cell Mito Stress Test kit in absence or presence of SVC_01 [20 μM]. This assay is the widely recognized, well-accepted standard assay for assessing energetic mitochondrial function. Multiple parameters are obtained in this one assay including, basal respiration, ATP-linked respiration, maximal and reserve capacities, and non-mitochondrial respiration. The assay provides insights into the mechanism of mitochondrial dysfunction and allow users to investigate functional differences among cell types, drug candidates, and genetic or biochemical interventions.
Next, we performed safety pharmacology experiments and head-to-head compared the cellular toxicity of SVCs on human cells. For our comparison we used microtubule binding agents including Parthenolide that previously was coined as an inhibitor of detyrosination (Fonrose et al., 2007). This compound was latter shown to disrupt microtubules by non-specific binding to tubulin in the molecular structure (Hotta T. et al., 2021). […] Mitochondrial health was assayed using the Seahorse equipment XF. […] No mitochondrial defects were measured at 20 micromolar concentration of our VASH inhibitor (FIG. 10). […]

[5] = target: recombinant human VASH2 (Homo sapiens, UniProt Q86V25); assay: In vitro detyrosination assay with recombinant human VASH2; format: biochemical; details: increasing concentration
Protocol: FIG. 32: In vitro detyrosination assays using recombinant human VASH1 and VASH2 enzymes in presence of increasing concentration of SVC_01.
Specificity of SVC-01 was assayed using both human VASH1 and VASH2 recombinant enzymes. […] Finally, to ensure that regulation of other genes involved in the detyrosination-tyrosination cycle is not affected, we analysed gene expression of all relevant and associated genes following treatment with SVC-02 in adult human cardiomyocytes. We found no alteration of VASH1, VASH2, MATCAP, TTL or SVBP gene expression between vehicle control and SVC-02 treated cells (FIG. 34).

Chain of recombinant human VASH2 (Q86V25 whole entry): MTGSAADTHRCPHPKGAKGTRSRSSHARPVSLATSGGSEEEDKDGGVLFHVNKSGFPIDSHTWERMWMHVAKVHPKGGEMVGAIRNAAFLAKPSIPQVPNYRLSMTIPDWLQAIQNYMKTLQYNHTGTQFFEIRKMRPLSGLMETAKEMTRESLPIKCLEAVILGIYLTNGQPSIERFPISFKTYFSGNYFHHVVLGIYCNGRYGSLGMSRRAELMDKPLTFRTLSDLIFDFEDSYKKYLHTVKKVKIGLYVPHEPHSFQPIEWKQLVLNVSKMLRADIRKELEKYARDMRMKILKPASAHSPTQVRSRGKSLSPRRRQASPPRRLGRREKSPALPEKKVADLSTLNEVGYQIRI

Row | mitochondrial activity [4] | Structure (SMILES) | contraction velocity [1] | fractional shortening [1] | resting sarcomere length [1] | time to 50% relaxation / relaxation ([1]; 4 hours incubation) | organ structure (kidney, heart and lung) histology [2] | E/A ratio ([3]; echocardiography) | mitral valve deceleration time ([3]; echocardiography) | dP/dTmin (rate of ventricular relaxation) ([3]; hemodynamics) | tau (left ventricular diastolic time constant) ([3]; hemodynamics) | inhibition of detyrosinating activity of recombinant human VASH2 [5]
1 |  | CCOC(=O)[C@H](Cc1ccc(OCC)cc1)NC(=O)[C@H]1O[C@@H]1C(=O)N[C@@H](Cc1ccc(OCC)cc1)C(=O)OCC [SVC_02] | did not significantly change | did not significantly change | did not significantly change | improved; also recorded: shortened the time to 50% relaxation | normal appearance of different organs; also recorded: did not alter organ structure | Improved | Improved | Improved | Improved | 
2 | does not alter mitochondrial activity | O=C(O)CCC[C@H](NC(=O)[C@H]1O[C@@H]1C(=O)C[C@@H](Cc1ccc(OCc2ccccc2)cc1)C(=O)O)C(=O)NCCc1ccccc1 [SVC_01] |  |  |  |  |  |  |  |  |  | efficiently inhibited; also recorded: efficient in inhibiting
